Data published in ChEMBL document CHEMBL1201862, “PubChem BioAssay data set” (2004).
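Each compound was tested at five concentrations against cells in 96-well plates for 48 hours. GI50: concentration for 50% inhibition of growth.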 The source made the active and inactive calls. Rule as the data show it: active = GI50 up to about 1.1 µM and inactive = higher.

What was measured:
Assay in all cases: DTP human tumour cell line panel, 48 h
[1] = system: NCI-H460
[2] = system: OVCAR-3
[3] = system: UACC-62
[4] = system: SK-MEL-5
[5] = system: OVCAR-4
[6] = system: HCT-15
[7] = system: HCT-116
[8] = system: TK-10
[9] = system: EKVX
[10] = system: HT-29
[11] = system: U-251
[12] = system: OVCAR-8
[13] = system: SN12C
[14] = system: MOLT-4
[15] = system: UO-31
[16] = system: K562
[17] = system: COLO 205
[18] = system: ACHN
[19] = system: SNB-19
[20] = system: SNB-75

Row | Structure (SMILES) | GI50 [1] | GI50 [2] | GI50 [3] | GI50 [4] | GI50 [5] | GI50 [6] [µM] | GI50 [7] | GI50 [8] | GI50 [9] | GI50 [10] | GI50 [11] | GI50 [12] | GI50 [13] | GI50 [14] | GI50 [15] | GI50 [16] | GI50 [17] | GI50 [18] | GI50 [19] | GI50 [20]
1 | COc1ccc2c(c1)[n+]([O-])c(C(C)=O)c(C)[n+]2[O-] | > 100 µM (inactive) | > 100 µM (inactive) | > 100 µM (inactive) | > 100 µM (inactive) | > 100 µM (inactive) | > 100 | > 100 µM (inactive) | > 100 µM (inactive) | > 100 µM (inactive) | > 100 µM (inactive) | > 100 µM (inactive) | > 100 µM (inactive) | > 100 µM (inactive) | > 100 µM (inactive) | > 100 µM (inactive) | > 100 µM (inactive) | > 100 µM (inactive) | > 100 µM (inactive) | > 100 µM (inactive) | –
2 | CC(C)CNc1nc2ncnc(N)c2[nH]1 | > 100 µM (inactive) | > 100 µM (inactive) | > 100 µM (inactive) | > 100 µM (inactive) | > 100 µM (inactive) | > 100 | > 100 µM (inactive) | > 100 µM (inactive) | > 100 µM (inactive) | > 100 µM (inactive) | > 100 µM (inactive) | > 100 µM (inactive) | > 100 µM (inactive) | > 100 µM (inactive) | > 100 µM (inactive) | > 100 µM (inactive) | > 100 µM (inactive) | > 100 µM (inactive) | > 100 µM (inactive) | –
3 | Clc1cc(Cl)cc(C2SCc3nc4ccccc4n32)c1 (stereo unspecified) | 14.3 µM (inactive) | 16.9 µM (inactive) | 21.5 µM (inactive) | 12.7 µM (inactive) | – | – | > 10 µM (inactive) | 27.7 µM (inactive) | 22.6 µM (inactive) | 12 µM (inactive) | 14 µM (inactive) | 17 µM (inactive) | 15.2 µM (inactive) | 11.7 µM (inactive) | 19.3 µM (inactive) | 3.82 µM (inactive) | 18.2 µM (inactive) | 22.9 µM (inactive) | 20.7 µM (inactive) | 43.4 µM (inactive)
4 | Cn1c(=O)c2[nH]c(/N=N/N3CCN(CCO)CC3)nc2n(C)c1=O | > 100 µM (inactive) | > 100 µM (inactive) | > 100 µM (inactive) | > 100 µM (inactive) | > 100 µM (inactive) | > 100 | > 100 µM (inactive) | > 100 µM (inactive) | > 100 µM (inactive) | > 100 µM (inactive) | > 100 µM (inactive) | > 100 µM (inactive) | > 100 µM (inactive) | > 100 µM (inactive) | > 100 µM (inactive) | > 100 µM (inactive) | > 100 µM (inactive) | > 100 µM (inactive) | > 100 µM (inactive) | –
5 | O=c1[nH]cnc2c(COCCCO)c[nH]c12 | – | > 100 µM (inactive) | > 100 µM (inactive) | > 100 µM (inactive) | – | > 100 | > 100 µM (inactive) | > 100 µM (inactive) | > 100 µM (inactive) | > 100 µM (inactive) | > 100 µM (inactive) | > 100 µM (inactive) | > 100 µM (inactive) | > 100 µM (inactive) | > 100 µM (inactive) | > 100 µM (inactive) | > 100 µM (inactive) | > 100 µM (inactive) | > 100 µM (inactive) | > 100 µM (inactive)
6 | Cn1nc(-c2ccccc2)c(C(=O)/C=C/c2ccccc2)c(N2CCCC2)c1=O | 10.3 µM (inactive) | – | 13.9 µM (inactive) | 15.3 µM (inactive) | – | 13.5 | 5.94 µM (inactive) | 22.5 µM (inactive) | 20.4 µM (inactive) | 12.6 µM (inactive) | 12.9 µM (inactive) | 16.9 µM (inactive) | 20.7 µM (inactive) | 4.39 µM (inactive) | 21.4 µM (inactive) | 7.14 µM (inactive) | 14.9 µM (inactive) | 12.6 µM (inactive) | – | –
7 | CC1(CO)COS(=O)OC1 (stereo unspecified) | > 100 µM (inactive) | > 100 µM (inactive) | – | > 100 µM (inactive) | > 100 µM (inactive) | > 100 | > 100 µM (inactive) | > 100 µM (inactive) | – | > 100 µM (inactive) | > 100 µM (inactive) | > 100 µM (inactive) | > 100 µM (inactive) | > 100 µM (inactive) | > 100 µM (inactive) | – | > 100 µM (inactive) | > 100 µM (inactive) | > 100 µM (inactive) | > 100 µM (inactive)
8 | COc1ccc2c(c1)-c1oc3ccccc3c(=O)c1CO2 | – | 31.3 µM (inactive) | 38.1 µM (inactive) | 17.4 µM (inactive) | – | 24.9 | 28.8 µM (inactive) | 45.2 µM (inactive) | 25 µM (inactive) | 31.1 µM (inactive) | 28.7 µM (inactive) | 39.1 µM (inactive) | 32.7 µM (inactive) | 28.1 µM (inactive) | 22.9 µM (inactive) | 65 µM (inactive) | 31.4 µM (inactive) | 28.1 µM (inactive) | – | 31.6 µM (inactive)
9 | CC(C)N(C(=O)C1(O)c2ccccc2C=Cc2ccccc21)C(C)C | – | 16.9 µM (inactive) | 15.4 µM (inactive) | 16.3 µM (inactive) | 22.5 µM (inactive) | 21.1 | 17.5 µM (inactive) | 18 µM (inactive) | 16.6 µM (inactive) | 15.3 µM (inactive) | 16.8 µM (inactive) | 16.9 µM (inactive) | 16.3 µM (inactive) | 23.7 µM (inactive) | 21.1 µM (inactive) | – | 19.3 µM (inactive) | 16.1 µM (inactive) | 19.9 µM (inactive) | –
10 | N#CCCN(CCN(CCC#N)C(=O)Nc1ccccc1)C(=O)Nc1ccccc1 | 68.5 µM (inactive) | – | > 100 µM (inactive) | > 100 µM (inactive) | – | > 100 | 49.3 µM (inactive) | > 100 µM (inactive) | 90.8 µM (inactive) | > 100 µM (inactive) | 39.6 µM (inactive) | 57.5 µM (inactive) | > 100 µM (inactive) | > 100 µM (inactive) | 85.7 µM (inactive) | > 100 µM (inactive) | > 100 µM (inactive) | > 100 µM (inactive) | 32.7 µM (inactive) | 19.5 µM (inactive)
11 | FC(F)(F)c1ccc(/N=N/N2CCCC2)cc1 | 63 µM (inactive) | > 100 µM (inactive) | > 100 µM (inactive) | 42.6 µM (inactive) | > 100 µM (inactive) | > 100 | > 100 µM (inactive) | > 100 µM (inactive) | > 100 µM (inactive) | > 100 µM (inactive) | > 100 µM (inactive) | – | > 100 µM (inactive) | > 100 µM (inactive) | 54.7 µM (inactive) | > 100 µM (inactive) | > 100 µM (inactive) | > 100 µM (inactive) | > 100 µM (inactive) | –
12 | COc1ccc(C(=O)c2c3cc(OC)c(OC)c(OC)c3cc[n+]2C)cc1 | 31.6 µM (inactive) | – | – | 17.5 µM (inactive) | – | – | 28 µM (inactive) | 46.5 µM (inactive) | 55.3 µM (inactive) | 30.3 µM (inactive) | 40 µM (inactive) | 35.7 µM (inactive) | 31.8 µM (inactive) | 20.5 µM (inactive) | 26 µM (inactive) | 20.1 µM (inactive) | – | 26.5 µM (inactive) | 31 µM (inactive) | 27.9 µM (inactive)
